Source: patent US20030215498A1, “Rapidly disintegrating comressed tablets comprising biologically active compounds” (priority 2002, published 2003)

Assay: Dissolution testing of acetaminophen particles (USP XXIII, Apparatus 2, paddle)
Format: physicochemical
Conditions: 900 ml water, 37° C., USP Apparatus 2, paddle 50 rpm, amount equivalent to 500 mg acetaminophen, n = 6
Protocol: Dissolution testing of the acetaminophen particles was carried out using USP XXIII “Acetaminophen capsules” and “Dissolution '711”, which are incorporated herein by reference. The method was adapted to use a relevant quantity of powder, i.e. an amount equivalent to 500 mg of acetaminophen in the dissolution bowl. This quantity represents a standard amount of […] in marketed U.S.A. over-the-counter (OTC) products. The operating conditions included 900 ml of water at 37° C. in a USP Apparatus 2 with paddle speed set at 50 rpm. FIG. 1 presents the dissolution-curves of acetaminophen and 4.6% lipid-based coated acetaminophen, i.e. 4.6% coating and 95.4% acetaminophen.

With CC(=O)Nc1ccc(O)cc1 [100% Acetaminophen, Acetaminophen] the Dissolution % (5 min) was 66.3%, the Dissolution % (10 min) was 90.8% and the Dissolution % (15 min) was 95.7%. It also gave a Dissolution % (20 min) of 97.1%, a Dissolution % (30 min) of 97.5% and a Dissolution % (45 min) of 97.7%. The Dissolution % (60 min) was 97.7%.
